According to patent publication US20230133958A1, “COMPOUNDS USEFUL IN MODULATING EGFR AND PI3K” (Mekanistic Therapeutics LLC, priority 2021, published 2023):
pIC50: −log10 of the molar value.

Molecular target: PI3Kβ (Homo sapiens, UniProt P42338)
Test: Z'-LYTE / Adapta biochemical kinase assay, PI3Kβ
From the text: The Z′-LYTE® biochemical assay employs a fluorescence-based, coupled-enzyme format and is based on the differential sensitivity of phosphorylated and non-phosphorylated peptides to proteolytic cleavage. The peptide substrate is labeled with two fluorophores—one at each end—that make up a FRET pair. In the primary reaction, the kinase transfers the gamma-phosphate of ATP to a single tyrosine, serine or threonine residue in a synthetic FRET-peptide. In the secondary reaction, a site-specific protease recognizes and cleaves non-phosphorylated FRET-peptides. Phosphorylation of FRET-peptides suppresses cleavage by the Development Reagent. […] A ratiometric method, which calculates the ratio (the Emission Ratio) of donor emission to acceptor emission after excitation of the donor fluorophore at 400 nm, is used to quantitate reaction progress.
A significant benefit of this ratiometric method for quantitating reaction progress is the elimination of well-to-well variations in FRET-peptide concentration and signal intensities. […]
Both cleaved and uncleaved FRET-peptides contribute to the fluorescence signals and therefore to the Emission Ratio. The extent of phosphorylation of the FRET-peptide can be calculated from the Emission Ratio. […]

PI3Kβ, sequence (P42338 whole entry): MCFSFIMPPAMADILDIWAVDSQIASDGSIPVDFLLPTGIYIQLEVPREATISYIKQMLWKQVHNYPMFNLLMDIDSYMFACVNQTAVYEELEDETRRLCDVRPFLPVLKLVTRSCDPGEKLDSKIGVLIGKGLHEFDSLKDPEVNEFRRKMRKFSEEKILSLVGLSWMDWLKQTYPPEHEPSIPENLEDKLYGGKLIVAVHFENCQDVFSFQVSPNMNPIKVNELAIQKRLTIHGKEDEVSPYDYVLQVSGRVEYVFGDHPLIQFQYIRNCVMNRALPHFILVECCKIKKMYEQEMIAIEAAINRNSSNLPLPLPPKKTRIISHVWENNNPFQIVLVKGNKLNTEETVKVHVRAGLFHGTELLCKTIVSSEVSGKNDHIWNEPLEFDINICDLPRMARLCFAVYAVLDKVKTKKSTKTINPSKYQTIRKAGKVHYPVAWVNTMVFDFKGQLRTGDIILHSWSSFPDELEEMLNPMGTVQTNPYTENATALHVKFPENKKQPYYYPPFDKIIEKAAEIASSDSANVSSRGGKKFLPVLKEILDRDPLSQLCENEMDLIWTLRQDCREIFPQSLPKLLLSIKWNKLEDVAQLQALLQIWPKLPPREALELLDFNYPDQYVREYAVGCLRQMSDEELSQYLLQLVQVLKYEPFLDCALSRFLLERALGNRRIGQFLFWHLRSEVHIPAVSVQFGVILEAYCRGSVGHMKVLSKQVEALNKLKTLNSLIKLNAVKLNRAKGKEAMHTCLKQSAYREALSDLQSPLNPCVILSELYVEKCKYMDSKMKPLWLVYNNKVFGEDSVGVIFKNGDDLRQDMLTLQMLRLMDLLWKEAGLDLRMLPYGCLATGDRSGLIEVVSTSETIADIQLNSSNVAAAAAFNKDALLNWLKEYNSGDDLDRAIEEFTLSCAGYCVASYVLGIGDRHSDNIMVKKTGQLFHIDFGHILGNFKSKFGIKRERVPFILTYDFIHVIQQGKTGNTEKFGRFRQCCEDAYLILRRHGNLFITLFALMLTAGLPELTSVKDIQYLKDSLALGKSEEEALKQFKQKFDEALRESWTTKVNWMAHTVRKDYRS
PI3Kβ, sequence (P27986 whole entry partner): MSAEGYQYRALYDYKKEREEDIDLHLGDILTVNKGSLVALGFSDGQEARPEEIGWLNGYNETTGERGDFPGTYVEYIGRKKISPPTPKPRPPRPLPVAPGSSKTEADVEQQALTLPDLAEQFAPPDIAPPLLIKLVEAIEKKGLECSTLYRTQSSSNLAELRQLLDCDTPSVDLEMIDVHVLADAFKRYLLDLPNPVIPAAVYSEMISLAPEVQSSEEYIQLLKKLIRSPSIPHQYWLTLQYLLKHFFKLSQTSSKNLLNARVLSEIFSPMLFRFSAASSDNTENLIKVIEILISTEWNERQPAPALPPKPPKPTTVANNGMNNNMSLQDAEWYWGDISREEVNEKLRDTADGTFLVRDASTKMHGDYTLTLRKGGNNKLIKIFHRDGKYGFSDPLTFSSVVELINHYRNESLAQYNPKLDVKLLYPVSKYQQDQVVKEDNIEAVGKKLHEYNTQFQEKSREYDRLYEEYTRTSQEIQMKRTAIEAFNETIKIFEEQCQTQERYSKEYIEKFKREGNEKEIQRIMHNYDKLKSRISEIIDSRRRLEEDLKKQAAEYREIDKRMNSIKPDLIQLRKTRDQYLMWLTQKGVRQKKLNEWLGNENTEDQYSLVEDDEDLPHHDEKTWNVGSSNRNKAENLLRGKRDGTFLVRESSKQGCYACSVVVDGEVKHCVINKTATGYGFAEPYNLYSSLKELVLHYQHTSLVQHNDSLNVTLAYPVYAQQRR

SMILES: CS(=O)(=O)Nc1cc(-c2ccc3ncnc(Nc4cccc(Cl)c4F)c3c2)cnc1Cl [Compound 6, N-[2-chloro-5-[4-(3-chloro-2-fluoro-anilino)quinazolin-6-yl]-3-pyridyl] methanesulfonamide]
- pIC50: 6.70 to 7.70
